Laboratory results published in ChEMBL document CHEMBL6182949 (J Med Chem, 2025).
Calls of active or inactive are those of the source. No cut-off for these calls is given here.

Key:
[1] = Metabolic stability in cynomolgus monkey liver microsome assessed as half life at 1 uM measured up to 60 mins in presence of NADPH by LC-MS/MS analysis; type: ADME, Macaca fascicularis; settings: liver microsomes
[2] = Metabolic stability in mouse liver microsome assessed as half life at 1 uM measured up to 60 mins in presence of NADPH by LC-MS/MS analysis; type: ADME; settings: liver microsomes
[3] = target: hERG (KCNH2) (Homo sapiens, UniProt Q12809); experiment: Inhibition of hERG expressed in HEK293 cells at 3 uM by manual patch clamp assay relative to control; type: toxicity, cell-based; settings: HEK293 cells expressing hERG
[4] = Metabolic stability rat hepatocyte assessed as half life at 1 uM measured up to 120 mins by LC-MS/MS analysis; type: ADME, cell-based; settings: hepatocytes
[5] = Permeability across basolateral to apical side in human Caco-2 cells incubated for 120 mins by LC-MS/MS analysis; type: ADME, cell-based; settings: read-out: permeability
[6] = AUClast in male C57BL/6 mouse at 2 mg/kg, iv measured up to 24 hrs by LC-MS/MS analysis; type: ADME, organism-based; settings: in vivo
[7] = Volume of distribution at steady state in male C57BL/6 mouse at 2 mg/kg, iv measured up to 24 hrs by LC-MS/MS analysis; type: ADME, organism-based; settings: in vivo, read-out: Vdss
[8] = AUClast in male C57BL/6 mouse at 10 mg/kg, po measured up to 24 hrs by LC-MS/MS analysis; type: ADME, organism-based; settings: in vivo
[9] = Oral bioavailability in male C57BL/6 mouse at 10 mg/kg measured up to 24 hrs by LC-MS/MS analysis; type: ADME, organism-based; settings: in vivo
[10] = Cmax in Sprague-Dawley rat at 2 mg/kg, iv measured up to 24 hrs by LC-MS/MS analysis; type: ADME, organism-based; settings: in vivo
[11] = AUClast in Sprague-Dawley rat at 2 mg/kg, iv measured up to 24 hrs by LC-MS/MS analysis; type: ADME, organism-based; settings: in vivo
[12] = Volume of distribution at steady state in Sprague-Dawley rat at 2 mg/kg, iv measured up to 24 hrs by LC-MS/MS analysis; type: ADME, organism-based; settings: in vivo, read-out: Vdss
[13] = Cmax in Sprague-Dawley rat at 10 mg/kg, po measured up to 24 hrs by LC-MS/MS analysis; type: ADME, organism-based; settings: in vivo
[14] = Volume of distribution at steady state in Beagle dog at 2 mg/kg, iv measured up to 24 hrs by LC-MS/MS analysis; type: ADME, organism-based, Canis lupus familiaris; settings: in vivo
[15] = Cmax in Beagle dog at 10 mg/kg, po measured up to 24 hrs by LC-MS/MS analysis; type: ADME, organism-based, Canis lupus familiaris; settings: in vivo
[16] = Half life in Beagle dog at 10 mg/kg, po measured up to 24 hrs by LC-MS/MS analysis; type: ADME, organism-based, Canis lupus familiaris; settings: in vivo
[17] = Half life in cynomolgus monkey at 1 mg/kg, iv measured up to 24 hrs by LC-MS/MS analysis; type: ADME, organism-based, Macaca fascicularis; settings: in vivo
[18] = Tmax in cynomolgus monkey at 20 mg/kg, po measured up to 24 hrs by LC-MS/MS analysis; type: ADME, organism-based, Macaca fascicularis; settings: in vivo
[19] = target: T1, CYP1A2 (Homo sapiens, UniProt P05177); experiment: Inhibition of CYP1A2 in human liver microsome using phenacetin as substrate at 10 uM preincubated for 5 mins followed by NADPH addition and measured after 20 mins by LC-MS/MS analysis relative to control; type: ADME; settings: human liver microsomes, probe phenacetin, time 25 min
T1 sequence (P05177 whole entry): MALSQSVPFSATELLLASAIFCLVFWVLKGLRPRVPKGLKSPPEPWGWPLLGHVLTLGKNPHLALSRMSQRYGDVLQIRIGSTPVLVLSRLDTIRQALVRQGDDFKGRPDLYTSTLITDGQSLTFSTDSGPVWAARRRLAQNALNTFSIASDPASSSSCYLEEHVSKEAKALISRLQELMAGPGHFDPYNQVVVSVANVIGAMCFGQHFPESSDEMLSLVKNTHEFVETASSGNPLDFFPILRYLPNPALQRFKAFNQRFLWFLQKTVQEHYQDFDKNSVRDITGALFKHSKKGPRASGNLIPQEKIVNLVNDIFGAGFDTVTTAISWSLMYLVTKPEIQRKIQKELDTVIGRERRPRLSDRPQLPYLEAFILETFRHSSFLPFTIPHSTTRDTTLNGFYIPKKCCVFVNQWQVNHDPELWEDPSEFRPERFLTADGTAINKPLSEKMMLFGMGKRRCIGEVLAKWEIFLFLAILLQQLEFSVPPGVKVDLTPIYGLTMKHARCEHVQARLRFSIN

[20] = target: CYP3A4 (Homo sapiens, UniProt P08684); experiment: Inhibition of CYP3A4 in human liver microsome using midazolam as substrate at 10 uM preincubated for 5 mins followed by NADPH addition and measured after 10 mins by LC-MS/MS analysis relative to control; type: ADME; settings: human liver microsomes, probe midazolam, time 15 min
[21] = target: Protein cereblon/Interleukin-1 receptor-associated kinase 4 (Homo sapiens, UniProt Q9NWZ3+Q96SW2); experiment: PROTAC activity at CRBN/IRAK4 in human PBMC cells assessed as induction of IRAK4 degradation incubated for 24 hrs by HiBiT lytic reagent based analysis; type: cell-based
[22] = target: Cereblon/Ikaros (Homo sapiens) (UniProt Q96SW2+Q13422); experiment: PROTAC activity at CRBN/IKZF1 in human PBMC cells assessed as induction of SALL4 degradation at 1 uM by Western blot analysis; type: cell-based
[23] = test system: Mus musculus; experiment: Anti-psoriasis effect in IMQ-induced C57BL/6 mouse assessed as reduction in spleen weight at 30 mg/kg administered topically twice daily for 6 days and measured after 24 hrs; type: functional, organism-based; settings: time 7.0 day
[24] = target: Protein cereblon/Interleukin-1 receptor-associated kinase 4 (Mus musculus) (UniProt Q8C7D2+Q8R4K2); experiment: In-vivo PROTAC activity at C57BL/6 mouse assessed as reduction in IRAK4 level in spleen at 30 mg/kg, po measured after 24 hrs by Western blot analysis; type: functional, organism-based; design: scale not given: the % may be the effect or the level left
[25] = test system: Mus musculus; experiment: Anti-arthritic activity against collagen-induced arthritis DBA/1 mouse model assessed as reduction in pathological score at 30 mg/kg, po administered for 14 days; type: functional, organism-based; settings: time 14.0 day

Chain of hERG (KCNH2) (Q12809 whole entry): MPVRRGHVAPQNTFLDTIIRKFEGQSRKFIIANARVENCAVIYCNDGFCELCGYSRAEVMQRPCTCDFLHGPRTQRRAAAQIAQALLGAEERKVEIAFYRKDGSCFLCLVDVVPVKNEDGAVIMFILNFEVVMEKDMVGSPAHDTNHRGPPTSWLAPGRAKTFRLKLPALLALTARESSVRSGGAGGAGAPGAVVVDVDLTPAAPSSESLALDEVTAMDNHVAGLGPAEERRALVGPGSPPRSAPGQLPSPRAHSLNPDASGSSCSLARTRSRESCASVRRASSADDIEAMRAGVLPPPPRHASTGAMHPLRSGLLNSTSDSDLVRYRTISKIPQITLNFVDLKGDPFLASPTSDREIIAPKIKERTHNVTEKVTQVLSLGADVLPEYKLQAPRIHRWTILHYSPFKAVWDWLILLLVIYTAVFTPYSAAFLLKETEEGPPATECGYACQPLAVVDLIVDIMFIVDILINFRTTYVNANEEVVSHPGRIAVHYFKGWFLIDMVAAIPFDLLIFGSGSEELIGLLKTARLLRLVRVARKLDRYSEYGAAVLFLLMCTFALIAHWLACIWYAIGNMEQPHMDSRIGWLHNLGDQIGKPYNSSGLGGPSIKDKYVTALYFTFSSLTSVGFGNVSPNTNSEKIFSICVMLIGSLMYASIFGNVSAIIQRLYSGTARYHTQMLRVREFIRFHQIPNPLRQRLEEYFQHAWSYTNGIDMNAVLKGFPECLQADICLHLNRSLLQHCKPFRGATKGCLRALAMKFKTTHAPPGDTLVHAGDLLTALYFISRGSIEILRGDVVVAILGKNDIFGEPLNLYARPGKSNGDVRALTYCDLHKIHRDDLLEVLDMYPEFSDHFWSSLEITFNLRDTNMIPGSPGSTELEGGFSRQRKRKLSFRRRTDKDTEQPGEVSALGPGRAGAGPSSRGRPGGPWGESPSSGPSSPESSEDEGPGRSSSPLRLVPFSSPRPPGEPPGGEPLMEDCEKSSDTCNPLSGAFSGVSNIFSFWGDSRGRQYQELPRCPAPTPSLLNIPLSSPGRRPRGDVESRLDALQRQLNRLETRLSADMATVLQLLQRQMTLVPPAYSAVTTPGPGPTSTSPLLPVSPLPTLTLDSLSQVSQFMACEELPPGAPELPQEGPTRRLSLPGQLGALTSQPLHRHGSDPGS
Chain of Protein cereblon/Interleukin-1 receptor-associated kinase 4 (Q9NWZ3 whole entry): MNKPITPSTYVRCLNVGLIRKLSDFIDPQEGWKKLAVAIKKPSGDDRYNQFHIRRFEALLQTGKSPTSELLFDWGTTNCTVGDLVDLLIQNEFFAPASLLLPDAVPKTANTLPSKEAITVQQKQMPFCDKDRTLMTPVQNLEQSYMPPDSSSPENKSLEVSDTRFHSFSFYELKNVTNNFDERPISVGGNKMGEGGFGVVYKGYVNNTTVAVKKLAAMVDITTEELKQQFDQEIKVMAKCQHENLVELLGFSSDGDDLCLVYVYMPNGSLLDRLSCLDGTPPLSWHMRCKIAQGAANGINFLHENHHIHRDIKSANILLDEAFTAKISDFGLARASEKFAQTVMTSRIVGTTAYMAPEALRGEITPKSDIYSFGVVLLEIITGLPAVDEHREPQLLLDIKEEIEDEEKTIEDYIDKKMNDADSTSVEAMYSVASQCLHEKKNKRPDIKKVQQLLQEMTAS
Chain of Protein cereblon/Interleukin-1 receptor-associated kinase 4 (Q96SW2 whole entry): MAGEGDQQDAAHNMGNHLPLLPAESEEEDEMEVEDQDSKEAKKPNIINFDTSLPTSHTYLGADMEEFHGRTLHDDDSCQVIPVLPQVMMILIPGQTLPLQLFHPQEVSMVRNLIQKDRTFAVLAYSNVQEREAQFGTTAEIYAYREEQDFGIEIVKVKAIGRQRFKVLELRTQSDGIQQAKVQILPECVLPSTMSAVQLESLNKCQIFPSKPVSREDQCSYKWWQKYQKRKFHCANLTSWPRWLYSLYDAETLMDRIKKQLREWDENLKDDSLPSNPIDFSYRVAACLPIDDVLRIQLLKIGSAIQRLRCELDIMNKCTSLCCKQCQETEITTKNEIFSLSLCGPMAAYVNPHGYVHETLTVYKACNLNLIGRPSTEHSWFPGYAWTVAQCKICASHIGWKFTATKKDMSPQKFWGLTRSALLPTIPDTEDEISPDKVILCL
Chain of CYP3A4 (P08684 whole entry): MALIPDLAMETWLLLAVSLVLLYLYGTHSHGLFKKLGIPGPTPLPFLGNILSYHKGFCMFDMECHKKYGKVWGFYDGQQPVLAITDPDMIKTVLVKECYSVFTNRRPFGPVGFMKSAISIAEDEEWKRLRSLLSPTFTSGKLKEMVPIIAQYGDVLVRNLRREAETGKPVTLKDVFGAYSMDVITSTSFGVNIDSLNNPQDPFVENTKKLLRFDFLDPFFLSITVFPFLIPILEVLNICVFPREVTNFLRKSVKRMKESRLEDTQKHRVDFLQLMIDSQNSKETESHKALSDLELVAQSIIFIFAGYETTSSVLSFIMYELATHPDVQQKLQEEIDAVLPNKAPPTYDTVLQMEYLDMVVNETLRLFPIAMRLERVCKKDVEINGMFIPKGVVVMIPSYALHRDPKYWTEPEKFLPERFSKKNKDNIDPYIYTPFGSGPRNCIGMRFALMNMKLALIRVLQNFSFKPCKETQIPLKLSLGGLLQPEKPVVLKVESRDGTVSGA
Chain of Protein cereblon/Interleukin-1 receptor-associated kinase 4 (Mus musculus) (Q8C7D2 whole entry, looked up): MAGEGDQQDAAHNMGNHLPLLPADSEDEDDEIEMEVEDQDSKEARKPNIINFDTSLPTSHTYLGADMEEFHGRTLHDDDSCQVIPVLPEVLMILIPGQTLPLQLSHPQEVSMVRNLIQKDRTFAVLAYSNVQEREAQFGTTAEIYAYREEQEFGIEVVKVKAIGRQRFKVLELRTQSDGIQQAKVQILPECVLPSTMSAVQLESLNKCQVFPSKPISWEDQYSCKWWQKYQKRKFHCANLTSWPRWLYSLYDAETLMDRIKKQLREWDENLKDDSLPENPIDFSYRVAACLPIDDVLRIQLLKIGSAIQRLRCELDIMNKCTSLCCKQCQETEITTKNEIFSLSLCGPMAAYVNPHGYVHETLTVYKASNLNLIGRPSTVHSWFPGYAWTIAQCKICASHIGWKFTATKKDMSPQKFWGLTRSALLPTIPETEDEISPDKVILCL
Chain of Protein cereblon/Interleukin-1 receptor-associated kinase 4 (Mus musculus) (Q8R4K2 whole entry, looked up): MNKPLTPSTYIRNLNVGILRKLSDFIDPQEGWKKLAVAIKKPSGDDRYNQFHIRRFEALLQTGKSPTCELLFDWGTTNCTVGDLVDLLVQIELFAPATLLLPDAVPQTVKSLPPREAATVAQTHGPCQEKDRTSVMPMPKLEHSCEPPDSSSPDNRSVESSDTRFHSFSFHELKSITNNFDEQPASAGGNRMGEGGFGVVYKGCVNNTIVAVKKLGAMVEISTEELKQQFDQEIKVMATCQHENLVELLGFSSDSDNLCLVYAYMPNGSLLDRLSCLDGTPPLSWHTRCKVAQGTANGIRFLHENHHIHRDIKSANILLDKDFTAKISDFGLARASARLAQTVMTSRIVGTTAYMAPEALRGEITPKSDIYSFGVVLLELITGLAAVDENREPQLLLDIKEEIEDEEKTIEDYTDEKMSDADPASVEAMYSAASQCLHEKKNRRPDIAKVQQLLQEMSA

Cn1c(=O)n(C2CCC(=O)NC2=O)c2cccc(C#CCO[C@H]3CC[C@H](CN4CCC5(CC4)Cc4cc(NC(=O)c6coc7cccnc67)c(N6CCC(CO)CC6)cc4O5)CC3)c21 (stereo not given in full)
half-life at 1 µM [1]: 1.98 h
half-life at 1 µM [2]: 1.52 h
inhibition at 3 µM [3]: 53%
half-life at 1 µM [4]: 2.65 h
Papp B→A at 2 h [5]: 0.2 ×10⁻⁶ cm/s
AUC(0-t) at 24 h [6]: 10600 ng·h/mL
Vd [7]: 0.88 L/kg
AUC(0-t) at 24 h [8]: 23400 ng·h/mL
bioavailability [9]: 45%
Cmax [10]: 14.2 ng/mL
AUClast [11]: 25.89 ng·h/mL
Vd [12]: 2.66 L/kg
Cmax [13]: 613 ng/mL
Vdss [14]: 73 L/kg
Cmax [15]: 360 ng/mL
half-life [16]: 10.6 h
half-life [17]: 8.67 h
Tmax [18]: 6 h
inhibition at 20 min, 10 µM [19]: 8.32%
inhibition at 10 min, 10 µM [20]: 19.1%
DC50 [21]: 0.43 nM
Activity [22]: inactive
Activity [23]: Active
Activity [24]: > 80%
Activity [25]: Active
